Measurements reported in patent US20070128217A1 (priority 2003, published 2007).

Tests used:
[1] = system: antibodies in sera from SARS patients (sera 1a, 1b, 2, 6, 37, 62, London, SARS-yellow, SARS-green); type: binding, human; set-up: Binding of serum 6 to linear peptides of protein X1 of SARS-CoV Urbani / Binding of serum 37 to linear peptides of protein X1 of SARS-CoV Urbani / Binding of serum 6 to looped/cyclic peptide (PEPSCAN-ELISA) / Binding of serum 37 to looped/cyclic peptide (PEPSCAN-ELISA) / Binding of serum 37 to looped/cyclic peptides of protein X1 of SARS-CoV Urbani / Binding of serum 6 to linear peptides of protein X2 / Binding of serum 37 to linear peptides of protein X2 / Binding of serum 37 to looped/cyclic peptides of protein X2 of SARS-CoV Urbani / Binding of serum 6 to linear peptides of protein M of SARS-CoV Urbani / Binding of serum 37 to linear peptides of protein M of SARS-CoV Urbani / Binding of serum 6 to looped/cyclic peptides of protein M of SARS-CoV Urbani / Binding of serum 37 to looped/cyclic peptides of protein M of SARS-CoV Urbani / Binding of serum 6 to linear peptides of protein X3 of SARS-CoV Urbani / Binding of serum 37 to linear peptides of protein X3 of SARS-CoV Urbani / Binding of serum 37 to looped/cyclic peptides of protein X3 of SARS-CoV Urbani / Binding of serum 6 to linear peptides of protein X4 of SARS-CoV Urbani / Binding of serum 37 to linear peptides of protein X4 of SARS-CoV Urbani / Binding of serum 37 to looped/cyclic peptides of protein X4 of SARS-CoV Urbani / Binding of serum 6 to linear peptides of protein X5 of SARS-CoV Urbani / Binding of serum 37 to linear peptides of protein X5 of SARS-CoV Urbani / Binding of serum 37 to looped/cyclic peptides of protein X5 of SARS-CoV Urbani / Binding of serum 6 to linear peptides of protein N of SARS-CoV Urbani / Binding of serum 37 to linear peptides of protein N of SARS-CoV Urbani / Binding of serum 6 to linear peptide (PEPSCAN-ELISA) / Binding of serum 1a to looped/cyclic peptides of protein N of SARS-CoV Urbani / Binding of serum 1b to looped/cyclic peptides of protein N of SARS-CoV Urbani / Binding of serum 2 to looped/cyclic peptides of protein N of SARS-CoV Urbani / Binding of serum 6 to looped/cyclic peptides of protein N of SARS-CoV Urbani / Binding of serum 37 to looped/cyclic peptides of protein N of SARS-CoV Urbani / Binding of serum 62 to looped/cyclic peptides of protein N of SARS-CoV Urbani / Binding of serum London to looped/cyclic peptides of protein N of SARS-CoV Urbani / Binding of serum SARS-green to looped/cyclic peptides of protein N of SARS-CoV Urbani: unit not given here
[2] = system: control sera (pooled serum of ten healthy LUMC hospital workers; commercial negative donor pooled serum from the Dutch bloodbank); type: binding, human; set-up: Binding of Control serum LUMC to linear peptides / Binding of Control serum Blood-bank to linear peptides / Binding of Control serum LUMC to looped peptides / Binding of Control Serum Blood-Bank to Looped peptides / Binding of Control serum LUMC to linear peptides of the protein M of SARS-CoV Urbani / Binding of Control serum Blood-bank to linear peptides of the protein M of SARS-CoV Urbani / Binding of Control serum LUMC to looped peptides of the protein M of SARS-CoV Urbani / Binding of Control Serum Blood-Bank to Looped peptides of the protein M of SARS-CoV Urbani: unit not given here
[3] = system: rabbit serum obtained by immunizing a rabbit with the SARS-CoV strain Frankfurt 1; type: binding; set-up: Binding of a rabbit serum to linear peptides / Binding of a rabbit serum to looped peptides / Rabbit serum linear peptides / Rabbit serum looped peptides / Binding of a rabbit serum to linear peptides of protein N of SARS-CoV Urbani (Rabbit serum linear peptides) / Binding of a rabbit serum to looped/cyclic peptides of protein N of SARS-CoV Urbani (Rabbit serum looped peptides): unit not given here

YFTEVYYQLESTQIT was tested, and the “Binding of serum 1a to linear peptides of protein X1 of SARS-CoV Urbani” value [1] was 0.7, the “Binding of serum 1a to looped/cyclic peptides of protein X1 of SARS-CoV Urbani” value [1] was 0.5 and the “Binding of serum 1b to linear peptides of protein X1 of SARS-CoV Urbani” value [1] was 0.6. The “Binding of serum 1b to looped/cyclic peptides of protein X1 of SARS-CoV Urbani” value [1] was 0.5, the “Binding of serum 2 to linear peptides of protein X1 of SARS-CoV Urbani” value [1] was 0.4 and the “Binding of serum 2 to looped/cyclic peptides of protein X1 of SARS-CoV Urbani” value [1] was 0.3. The “Binding of serum 6 to linear peptides of protein X1 of SARS-CoV Urbani” value [1] was 0.4, the “Binding of serum 6 to looped/cyclic peptides of protein X1 of SARS-CoV Urbani” value [1] was 0.2 and the “Binding of serum 37 to linear peptides of protein X1 of SARS-CoV Urbani” value [1] was 0.6. The “Binding of serum 37 to looped/cyclic peptides of protein X1 of SARS-CoV Urbani” value [1] was 0.4, the “Binding of serum 62 to linear peptides of protein X1 of SARS-CoV Urbani” value [1] was 0.6 and the “Binding of serum 62 to looped/cyclic peptides of protein X1 of SARS-CoV Urbani” value [1] was 0.4. The “Binding of serum London to linear peptides of protein X1 of SARS-CoV Urbani” value [1] was 0.3, the “Binding of serum London to looped/cyclic peptides of protein X1 of SARS-CoV Urbani” value [1] was 0.2 and the “Binding of serum SARS-green to linear peptides of protein X1 of SARS-CoV Urbani” value [1] was 0.3. The “Binding of serum SARS-green to looped/cyclic peptides of protein X1 of SARS-CoV Urbani” value [1] was 0.2, the “Binding of serum SARS-yellow to linear peptides of protein X1 of SARS-CoV Urbani” value [1] was 0.3 and the “Binding of serum SARS-yellow to looped/cyclic peptides of protein X1 of SARS-CoV Urbani” value [1] was 0.3. For the same sequence, the “Binding of Control Serum Blood-Bank to Looped peptides” value [2] was 0.4, the “Binding of Control serum Blood-bank to linear peptides” value [2] was 0.4 and the “Binding of Control serum LUMC to linear peptides” value [2] was 0.4. For the same sequence, the “Binding of Control serum LUMC to looped peptides” value [2] was 0.5, the “Binding of a rabbit serum to linear peptides” value [3] was 0.1 and the “Binding of a rabbit serum to looped peptides” value [3] was 0.4.
YIIKLVFLWLLWPVT was tested, and the “Binding of serum 1a to linear peptides of protein M of SARS-CoV Urbani” value [1] was 0.8, the “Binding of serum 1a to looped/cyclic peptides of protein M of SARS-CoV Urbani” value [1] was 0.8 and the “Binding of serum 1b to linear peptides of protein M of SARS-CoV Urbani” value [1] was 0.6. The “Binding of serum 1b to looped/cyclic peptides of protein M of SARS-CoV Urbani” value [1] was 0.8, the “Binding of serum 2 to linear peptides of protein M of SARS-CoV Urbani” value [1] was 0.9 and the “Binding of serum 2 to looped/cyclic peptides of protein M of SARS-CoV Urbani” value [1] was 0.6. The “Binding of serum 6 to linear peptides of protein M of SARS-CoV Urbani” value [1] was 0.4, the “Binding of serum 6 to looped/cyclic peptides of protein M of SARS-CoV Urbani” value [1] was 0.8 and the “Binding of serum 37 to linear peptides of protein M of SARS-CoV Urbani” value [1] was 0.7. For the same sequence, the “Binding of serum 37 to looped/cyclic peptides of protein M of SARS-CoV Urbani” value [1] was 0.7, the “Binding of serum 62 to linear peptides of protein M of SARS-CoV Urbani” value [1] was 0.8 and the “Binding of serum 62 to looped/cyclic peptides of protein M of SARS-CoV Urbani” value [1] was 0.7. For the same sequence, the “Binding of serum London to linear peptides of protein M of SARS-CoV Urbani” value [1] was 0.3, the “Binding of serum London to looped/cyclic peptides of protein M of SARS-CoV Urbani” value [1] was 0.3 and the “Binding of serum SARS-green to linear peptides of protein M of SARS-CoV Urbani” value [1] was 0.4. For the same sequence, the “Binding of serum SARS-green to looped/cyclic peptides of protein M of SARS-CoV Urbani” value [1] was 0.4, the “Binding of serum SARS-yellow to linear peptides of protein M of SARS-CoV Urbani” value [1] was 0.1 and the “Binding of serum SARS-yellow to looped/cyclic peptides of protein M of SARS-CoV Urbani” value [1] was 0.5. For the same sequence, the “Binding of Control Serum Blood-Bank to Looped peptides of the protein M of SARS-CoV Urbani” value [2] was 0.8, the “Binding of Control serum Blood-bank to linear peptides of the protein M of SARS-CoV Urbani” value [2] was 0.8 and the “Binding of Control serum LUMC to linear peptides of the protein M of SARS-CoV Urbani” value [2] was 0.5. The “Binding of Control serum LUMC to looped peptides of the protein M of SARS-CoV Urbani” value [2] was 0.8, the “Rabbit serum linear peptides” value [3] was 0.4 and the “Rabbit serum looped peptides” value [3] was 0.2.
